In PubChem BioAssay (NCI) one finds TGI and GI50 data, which are given here for 23 compounds.

Common to all, as to assay: NCI-60 cell line screen, 48 h
The test system of assay [1] is MDA-N.
The subject of assay [2] is RPMI-8226 leukemia.
Assay [3] concerns MCF7 breast.
Assay [4] concerns SF-295 CNS.
For assay [5], the system named is M14 melanoma.
Assay [6] has as its system PC-3 prostate.
Assay [7] concerns UACC-257 melanoma.
Assay [8] deals with DU-145 prostate.
The test system of assay [9] is HL-60(TB) leukemia.

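Cells were grown in 96-well plates and exposed to each compound for 48 hours at five concentrations; endpoints were interpolated linearly between bracketing concentrations, or set to the highest concentration if not reached. GI50 is the concentration that inhibits growth by half. TGI is the concentration that stops growth completely.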

In the case of `N#CC1=C2Sc3ccccc3N2[C@H](c2ccccc2)[C@H]2COC(=O)[C@@H]12`, the TGI is greater than 100 µM in assay [1]; 87.2 µM in assay [2]; greater than 100 µM in assay [3]; greater than 100 µM in assay [4]; greater than 100 µM in [5]; greater than 100 µM in assay [6]. In addition, the TGI in assay [7] and in assay [8] was greater than 100 µM in each case.
As to `CC(=O)O[C@H]1CC[C@@]2(C)C(=CC[C@@H]3[C@@H]2CC[C@]2(C)C(c4cccnc4)=CC[C@@H]32)C1`, the GI50 is 7.36 µM in assay [9]; 2.81 µM in [2]; 4.84 µM in assay [3]; 2.33 µM in [4]; 5.67 µM in assay [5]; 3.98 µM in [6]. For the same compound, the figures for the GI50 in [7] and in assay [8] were 28.1 µM and 22.3 µM, respectively. For the same compound, the TGI is greater than 100 µM in assay [9]; 8.07 µM in assay [2]; greater than 100 µM in [3]; 8.35 µM in assay [4]; greater than 100 µM in [5]; greater than 100 µM in [6]. Besides, the TGI in [7] and in assay [8] was greater than 100 µM throughout.
With `CC(=O)Oc1ccc(/C=C/C(=O)O[C@@H](C)[C@H](C)OC(=O)/C=C/c2ccc(OC(C)=O)c(OC(C)=O)c2)cc1OC(C)=O`, the TGI in assay [1] is 89.4 µM; in assay [2], 39.1 µM; in [3] it was greater than 100 µM; in [4], 39.3 µM; in assay [5], 58.4 µM; in assay [6], greater than 100 µM. The TGI in assay [7] is 65.1 µM; in [8] it was greater than 100 µM.
Regarding `CN(C)C(=S)N/N=C\C=N/NC(=S)N(C)C`, the TGI is greater than 100 µM in [1]; greater than 100 µM in assay [2]; greater than 100 µM in assay [3]; greater than 32.1 µM in assay [4]; 3.22 µM in [5]; greater than 100 µM in assay [6]. Also, the TGI in assay [7] was greater than 100 µM; in assay [8] it was greater than 40.7 µM.
In the case of `CCC1C(=O)C[C@H]2[C@@H]3C(O)CC4=CC(=O)CC[C@]4(C)[C@H]3CC[C@]12C` (some centres not stated), the TGI in assay [9], in [2], in assay [3], in assay [4], in [5] and in [6] was greater than 50 µM each time. The TGI in [7] and in [8] was greater than 50 µM throughout.
As for `Cn1ccnc1S/C(=C\C=C(C#N)C#N)c1ccc(Cl)cc1`, the TGI came to 3.42 µM in assay [9]; 53.6 µM in [2]; 2.62 µM in assay [3]; 11.3 µM in assay [4]; 5.02 µM in [5]; 9.22 µM in [6]. The TGI in assay [7] came to 5.5 µM; in [8], 10.9 µM. The GI50 in [2] is 19.2 µM.
On to `CC(=O)NCCCCNCCCNC(C)=O`, for which the TGI in assay [1], in assay [9], in assay [2], in [3], in [4] and in [5] was greater than 100 µM throughout. Moreover, the TGI in assay [7] and in assay [8] was greater than 100 µM throughout.
For `C=CCC(C)C12CCNC(Cc3ccc(O)cc31)C2C` (configuration not stated), the TGI in assay [2], in assay [3], in assay [4], in [5], in [7] and in assay [8] was greater than 100 µM in each case.
Take `O=C(CSc1nc2ccccc2[nH]1)Nc1ccc(-c2nc3ccccc3s2)c(Cl)c1`: the GI50 in assay [9] was greater than 100 µM; in assay [3] it was 3.58 µM; in [4], 3.63 µM; in assay [6] it was 2.83 µM; in assay [7], 4.08 µM. The TGI in assay [9], in [3], in [4], in assay [6] and in assay [7] was greater than 100 µM in each case.
With `CCOC(=O)/C(=C\NCC(O)c1ccccc1)c1nc2ccccc2[nH]1` (configuration not stated), the TGI was found to be 82.7 µM in [1]; 37.1 µM in assay [9]; 29.4 µM in assay [2]; 69 µM in [3]; 67 µM in [4]; 93.5 µM in assay [5]. In addition, the results for the TGI in assay [7] and in assay [8] were 42.5 µM and greater than 100 µM, respectively.
With `Cc1ccc2[nH]cc(-c3nc(-c4c[nH]c5ncccc45)cs3)c2c1`, the GI50 in [9], in [2], in assay [3], in [4], in assay [5] and in assay [6] was greater than 100 µM throughout. The GI50 in assay [7] was greater than 100 µM. In addition, the TGI in [9], in [2], in assay [3], in assay [4], in assay [5] and in assay [6] was greater than 100 µM in each case. This compound displayed a TGI in [7] greater than 100 µM.
For `S=C1c2ccccc2NC(=NC2CCCC2)C2CSCN12` (configuration not stated), the TGI in [2], in assay [3], in assay [4], in assay [5], in assay [6] and in assay [7] was greater than 100 µM in each case. Also, the TGI in assay [8] is greater than 100 µM.
In the case of `C=CC(=O)N1C/C(=C\c2ccc(N(C)C)cc2)C(=O)/C(=C/c2ccc(N(C)C)cc2)C1`, the TGI is 78.7 µM in assay [1]; greater than 100 µM in assay [3]; greater than 100 µM in assay [4]; greater than 100 µM in assay [5]; greater than 100 µM in assay [6]; greater than 100 µM in assay [7]. In assay [8], the TGI is greater than 100 µM.
Regarding `CCCCOC(=O)C(=O)C(CCC(=O)c1ccc(C)cc1)C(=O)C=C(C)C` (configuration not stated), the TGI in [1], in [9], in assay [2], in [3], in assay [4] and in assay [5] was greater than 100 µM in each case. Also, the TGI in assay [6] and in assay [7] was greater than 100 µM each time.
On to `OC(C1CCC=NN1C(O)(C(F)(F)F)C(F)(F)F)(C(F)(F)F)C(F)(F)F` (configuration not stated), for which the TGI in assay [1], in [2], in assay [3], in assay [4], in assay [5] and in assay [6] was greater than 10 µM in each case. Also, the TGI in assay [7] and in [8] was greater than 10 µM each time.
Consider `CC(=O)OC[C@H]1O[C@@H](O[C@H]2[C@H](OC(C)=O)C=CO[C@@H]2COC(C)=O)C(OC(C)=O)[C@H]2OC(C)(C)O[C@H]21` (some centres not stated), for which the TGI in [3], in [4], in assay [5], in assay [6] and in assay [7] was greater than 100 µM in each case.
As to `COC(=O)Cc1ccc2c(c1)Sc1ccc(CC(=O)OC)cc1N2C`, the TGI in assay [9] is greater than 93.3 µM; in assay [2], greater than 100 µM; in [3], greater than 63.5 µM; in [4], greater than 87.1 µM; in [5] it was greater than 100 µM; in [6], greater than 100 µM. Also, the TGI in assay [7] was greater than 93 µM; in assay [8], greater than 100 µM.
As to `CC(=O)OC(Cc1cc(C=C(C(F)(F)F)C(F)(F)F)cc(C)n1)(C(F)(F)F)C(F)(F)F`, the TGI was found to be 1.18 µM in assay [9]; 4.56 µM in assay [2]; 0.97 µM in [3]; 8.21 µM in [4]; 4.08 µM in assay [5]; 5.34 µM in [6]. Also, in assay [8], the TGI came out at 6.84 µM.
Turning to `CC(=O)C(C(C)=O)=C1CCCC(O)O1` (configuration not stated), the TGI in [9], in assay [2], in [3], in assay [4], in assay [5] and in assay [7] was greater than 100 µM in each case. Further, the TGI in assay [8] was greater than 100 µM.
Regarding `Brc1ccc(N=NN2CCCCC2)cc1`, the TGI in assay [1] is greater than 100 µM; in [2], 30.9 µM; in assay [3] it was greater than 100 µM; in [4], greater than 100 µM; in assay [5], greater than 100 µM; in [6], greater than 100 µM. Further, the TGI in assay [7] and in [8] was greater than 100 µM throughout.
Regarding `COc1ccc(N2C=Nn3c(nc4sc(C)c(C)c4c3=O)C2)cc1`, the TGI in assay [1], in [2], in assay [3], in [4], in [5] and in [6] was greater than 100 µM in each case. For the same compound, the TGI in assay [7] and in [8] was greater than 100 µM each time.
With `COC(=O)/C=C/c1ccccc1N=[S@](C)(=O)c1ccc(C)cc1`, the TGI is 7.25 µM in [9]; 61.3 µM in assay [2]; greater than 100 µM in assay [3]; 76.9 µM in assay [4]; 55.1 µM in [5]; greater than 100 µM in [6]. The TGI in assay [7] is 56.8 µM; in assay [8], greater than 100 µM.
As to `Cc1cnoc1NC1=CC(=O)C(=O)c2ccccc21`, the TGI in assay [1] was 3.01 µM; in assay [2], 50.3 µM; in assay [3], 16.4 µM; in assay [4], greater than 100 µM; in [5], greater than 100 µM; in assay [6], greater than 100 µM. The TGI was 49.3 µM in [7] and 61.2 µM in assay [8].
